The subject of the assay is PRPP levels of isolated splenocytes. The assay is described as follows: PRPP levels of isolated splenocytes incubated in vitro with UDPG or G-6-P. It is filed as cell-based, mouse. The note with it: for PRPP levels: soluble fraction of homogenates. Here is the method:
Isolation of splenocytes and hepatic cells: The organs were gently teased apart with forceps over a fine tea strainer into PBS or minimum essential culture medium (MEM) containing 0.1M potassium phosphate buffer pH 7.4 with and without added effectors. […] The supernatant solutions were assayed for PRPP.
The vials were shaken vigorously and their radioactivity determined.

`O=P(O)(O)OC[C@H]1OC(O)[C@H](O)[C@@H](O)[C@@H]1O` (some centres unmarked) [G-6-P, Glucose-6-phosphate] came in with a PRPP levels (1.1 mM in MEM) of 969 pmoles/mg protein, a PRPP levels (5.5 mM in MEM) of 1418 pmoles/mg protein, a PRPP levels (11 mM in MEM) of 1510 pmoles/mg protein and a PRPP levels (22 mM in MEM) of 1998 pmoles/mg protein. The “effect on intracellular PRPP level of splenocytes as a function of concentration” value (isolated splenocytes, in words) was “not evident below a concentration of 5.5 mM”.

The record behind these values is patent US5627161A (Memorial Hospital for Cancer and Allied Diseases, priority 1993, dated 1997).
